Measurements from the supplement of paper PMC10307832.

Assays:
Experiment in all cases: relative viability (nuclei count vs DMSO), 5 days (fraction); higher = more cells survive
Dactolisib + Dasatinib = compound: Cn1c(=O)n(-c2ccc(C(C)(C)C#N)cc2)c2c3cc(-c4cnc5ccccc5c4)ccc3ncc21 [Dactolisib] + Cc1nc(Nc2ncc(C(=O)Nc3c(C)cccc3Cl)s2)cc(N2CCN(CCO)CC2)n1 [Dasatinib] (partner 0.075 µM)
Method in brief: (§1)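 Cells from lung cancer lines were seeded into 1536-well plates and, one day later, dosed by pin tool. Treatments were either a single drug or a fixed dose of an anchor drug with five library-drug doses (not always all listed) in √10 steps. After 5 days, nuclei were stained in a one-step fixation (final 0.05% Triton X-100, 1% formaldehyde, 1 ug/ml Hoechst) and counted on 4× images, and relative viability is the treated-to-vehicle nuclei ratio, as the median of duplicate plates.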

AZ505 + OSI-027 = compound: C1CCC(CC1)N(CCNCCC2=C3C(=C(C=C2)O)NC(=O)CO3)C(=O)CCNCCC4=CC(=C(C=C4)Cl)Cl [AZ505] + COc1cccc2cc(-c3nc([C@H]4CC[C@H](C(=O)O)CC4)n4ncnc(N)c34)[nH]c12 [OSI-027] (partner 0.5 µM)
Method in brief: as §1

AZ505 + Pictilisib = compound: C1CCC(CC1)N(CCNCCC2=C3C(=C(C=C2)O)NC(=O)CO3)C(=O)CCNCCC4=CC(=C(C=C4)Cl)Cl [AZ505] + CS(=O)(=O)N1CCN(Cc2cc3nc(-c4cccc5[nH]ncc45)nc(N4CCOCC4)c3s2)CC1 [Pictilisib] (partner 1 µM)
Method in brief: as §1

Dactolisib + Lapatinib = compound: Cn1c(=O)n(-c2ccc(C(C)(C)C#N)cc2)c2c3cc(-c4cnc5ccccc5c4)ccc3ncc21 [Dactolisib] + CS(=O)(=O)CCNCc1ccc(-c2ccc3ncnc(Nc4ccc(OCc5cccc(F)c5)c(Cl)c4)c3c2)o1 [Lapatinib] (partner 2 µM)
Method in brief: as §1

Cell Line	relative viability (Dactolisib + Dasatinib; first compound 0.002 µM)	relative viability (Dactolisib + Dasatinib; first compound 0.006325 µM)	relative viability (Dactolisib + Dasatinib; first compound 0.02 µM)	relative viability (Dactolisib + Dasatinib; first compound 0.06325 µM)	relative viability (Dactolisib + Dasatinib; first compound 0.2 µM)	relative viability (AZ505 + OSI-027; first compound 0.08 µM)	relative viability (AZ505 + OSI-027; first compound 0.253 µM)	relative viability (AZ505 + OSI-027; first compound 0.8 µM)	relative viability (AZ505 + OSI-027; first compound 2.53 µM)	relative viability (AZ505 + OSI-027; first compound 8 µM)	relative viability (AZ505 + Pictilisib; first compound 0.08 µM)	relative viability (AZ505 + Pictilisib; first compound 0.253 µM)	relative viability (AZ505 + Pictilisib; first compound 0.8 µM)	relative viability (AZ505 + Pictilisib; first compound 2.53 µM)	relative viability (AZ505 + Pictilisib; first compound 8 µM)	relative viability (Dactolisib + Lapatinib; first compound 0.002 µM)	relative viability (Dactolisib + Lapatinib; first compound 0.006325 µM)	relative viability (Dactolisib + Lapatinib; first compound 0.02 µM)	relative viability (Dactolisib + Lapatinib; first compound 0.06325 µM)	relative viability (Dactolisib + Lapatinib; first compound 0.2 µM)
NCI-H2342	0.298	0.294	0.348	0.31	0.284	0.604	0.712	0.765	0.587	0.671	–	–	–	–	–	–	–	–	–	–
HCC-15	0.609	0.559	0.499	0.319	0.229	0.612	0.624	0.596	0.594	0.726	0.658	0.657	0.712	0.462	0.71	0.752	0.884	0.755	0.594	0.367
A-427	0.841	0.645	0.668	0.436	0.352	0.416	0.278	0.376	0.504	0.492	0.693	0.514	0.566	0.726	0.741	1.06	1.04	0.928	0.883	0.776
NCI-H2228	0.629	0.441	0.339	0.162	0.141	0.382	0.341	0.49	0.485	0.477	0.317	0.247	0.536	0.332	0.484	0.993	0.914	0.496	0.246	0.246
NCI-H1734	0.499	0.362	0.407	0.2	0.162	0.515	0.539	0.573	0.559	0.576	0.384	0.407	0.446	0.44	0.431	1.02	1	0.817	0.342	0.378
SK-LU-1	0.148	0.172	0.162	0.145	0.127	0.168	0.184	0.201	0.197	0.255	0.333	0.419	0.332	0.323	0.435	0.857	0.782	0.728	0.509	0.27
PC-14	0.312	0.285	0.264	0.0655	0.0441	0.72	0.835	0.666	0.765	0.786	0.449	0.754	0.658	0.643	0.703	0.33	0.347	0.318	0.186	0.141
NCI-H1915	0.357	0.332	0.308	0.241	0.175	0.549	0.563	0.544	0.416	0.587	0.907	0.891	0.835	0.703	0.913	0.986	0.956	0.97	0.964	0.693
NCI-H1666	0.877	0.793	0.791	0.677	0.588	0.779	0.817	0.725	0.93	0.912	0.442	0.404	0.421	0.408	0.456	0.723	0.559	0.691	0.318	0.391
HCC-366	0.598	0.565	0.597	0.341	0.136	0.817	0.635	0.948	0.764	0.924	0.136	0.186	0.123	0.128	0.18	0.897	0.988	1.03	0.445	0.613
SK-MES-1	0.433	0.375	0.307	0.222	0.147	0.501	0.53	0.534	0.577	0.583	0.377	0.394	0.388	0.38	0.411	0.476	0.452	0.428	0.352	0.296
NCI-H661	0.562	0.744	0.483	0.296	0.286	0.681	0.8	0.666	0.695	0.715	–	0.357	0.392	0.563	0.45	0.434	0.475	0.414	0.257	0.263
PC-3 [JPC-3]	1.1	0.941	0.911	1.03	0.885	0.671	0.798	0.712	0.707	0.797	0.597	0.702	0.676	0.706	0.827	0.486	0.492	0.44	0.456	0.361
NCI-H1623	0.518	0.585	0.528	0.412	0.379	0.423	0.405	0.452	0.476	0.398	–	–	–	–	–	–	–	–	–	–
Calu-6	–	–	–	–	–	–	–	–	–	–	0.835	0.989	0.884	0.905	0.867	1.18	1.08	0.98	0.645	0.531
LC-2-ad	0.495	0.486	0.491	0.349	0.297	0.747	0.759	0.629	0.876	0.912	0.427	0.422	0.465	0.515	0.508	1.01	–	1.06	0.728	0.437
CAL-12T	0.456	0.35	0.252	0.172	0.108	0.545	0.548	0.667	0.645	0.834	0.445	0.355	0.559	0.432	0.512	0.792	0.567	0.537	0.366	0.258

Cell Line	relative viability (Dactolisib + Dasatinib; first compound 0.002 µM)	relative viability (Dactolisib + Dasatinib; first compound 0.006325 µM)	relative viability (Dactolisib + Dasatinib; first compound 0.02 µM)	relative viability (Dactolisib + Dasatinib; first compound 0.06325 µM)	relative viability (Dactolisib + Dasatinib; first compound 0.2 µM)	relative viability (AZ505 + OSI-027; first compound 0.08 µM)	relative viability (AZ505 + OSI-027; first compound 0.253 µM)	relative viability (AZ505 + OSI-027; first compound 0.8 µM)	relative viability (AZ505 + OSI-027; first compound 2.53 µM)	relative viability (AZ505 + OSI-027; first compound 8 µM)	relative viability (AZ505 + Pictilisib; first compound 0.08 µM)	relative viability (AZ505 + Pictilisib; first compound 0.253 µM)	relative viability (AZ505 + Pictilisib; first compound 0.8 µM)	relative viability (AZ505 + Pictilisib; first compound 2.53 µM)	relative viability (AZ505 + Pictilisib; first compound 8 µM)	relative viability (Dactolisib + Lapatinib; first compound 0.002 µM)	relative viability (Dactolisib + Lapatinib; first compound 0.006325 µM)	relative viability (Dactolisib + Lapatinib; first compound 0.02 µM)	relative viability (Dactolisib + Lapatinib; first compound 0.06325 µM)	relative viability (Dactolisib + Lapatinib; first compound 0.2 µM)
RERF-LC-KJ	0.99	0.747	0.69	0.347	0.311	0.471	0.575	0.552	0.574	0.492	0.578	0.591	0.448	0.565	0.666	0.901	0.823	0.829	0.53	0.418
NCI-H1650	0.306	0.3	0.296	0.245	0.205	0.7	0.677	0.672	0.554	0.806	0.488	0.594	0.586	0.492	0.502	0.847	0.701	0.73	0.449	0.431
BEN	0.333	0.288	0.307	0.329	0.262	0.287	0.274	0.259	0.304	0.309	0.498	0.611	0.565	0.599	0.622	0.882	0.624	0.657	0.408	0.274
EMC-BAC-2	0.337	0.325	0.342	0.209	0.18	0.358	0.38	0.392	0.385	0.372	0.485	0.523	0.505	0.471	0.507	0.921	0.856	0.889	0.703	0.604
NCI-H1299	–	–	–	–	–	–	–	–	–	–	0.576	0.672	0.703	0.546	0.722	0.998	0.974	0.98	0.893	0.661
EBC-1	–	–	–	–	–	–	–	–	–	–	0.374	0.375	0.345	0.354	0.328	0.237	0.203	0.241	0.19	0.182
NCI-H1648	–	–	–	–	–	0.282	0.272	0.295	0.305	0.267	–	–	–	–	–	–	–	–	–	–
ChaGo-K-1	0.584	0.56	0.597	0.523	0.556	0.53	0.448	0.593	0.699	0.537	0.824	0.58	0.691	0.819	0.901	–	–	–	–	–
HCC-44	–	–	–	–	–	0.468	0.594	0.534	0.639	0.486	0.635	0.716	0.479	0.669	0.601	1.09	1	1	0.68	0.547
A549	–	–	–	–	–	–	–	–	–	–	0.461	0.569	0.519	0.585	0.59	1.07	0.769	0.674	0.224	0.145
NCI-H522	0.993	0.791	0.822	0.689	0.581	0.713	0.583	0.691	0.812	0.809	–	–	–	–	–	–	–	–	–	–
IA-LM	–	–	–	–	–	–	–	–	–	–	–	0.419	0.292	0.415	0.432	0.769	0.671	0.771	0.156	0.106
NCI-H1703	–	–	–	–	–	–	–	–	–	–	0.242	0.235	0.231	0.256	0.25	0.688	0.796	0.716	0.379	0.314
NCI-H441	0.729	0.477	0.527	0.357	0.205	0.66	0.595	0.614	0.579	0.703	0.427	0.548	0.458	0.546	0.521	–	–	–	–	–
LCLC-103H	0.529	0.422	0.45	0.429	0.307	0.447	0.472	0.447	0.496	0.476	0.627	0.532	0.555	0.657	0.6	–	–	–	–	–
SW 900	0.431	0.455	0.694	0.265	0.174	0.441	0.427	0.623	0.753	0.702	–	–	–	–	–	–	–	–	–	–
